From patent US10745401B2, “Condensed lactam derivative” (Sumitomo Dainippon Pharma Co., Ltd., priority 2018, dated 2020)

Legend:
[1] = Test 4: metabolic stability test in human hepatic microsome; type: in vitro ADME; settings: 0.1 mg/mL microsome, 0.1 μmol/L compound, 37° C., 30 minutes
How it was run: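 Compound at 0.1 μmol/L incubated 30 min at 37° C with human liver microsomes (0.1 mg/mL) and NADPH (3.2 mmol/L) in 25 mmol/L phosphate buffer, pH 7.4. Residual compound measured by LC-MS; stability (mL/min/mg protein) = −LN(residual ratio)/30/0.1.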

human 5-HT2A receptor [2] = molecular target: T1, human 5-HT2A receptor (Homo sapiens (Human), UniProt P28223); experiment: Test 1: binding activity for human 5-HT2A receptor ([3H]Ketanserin, CHO cell membrane fraction)
T1 sequence (P28223 whole entry): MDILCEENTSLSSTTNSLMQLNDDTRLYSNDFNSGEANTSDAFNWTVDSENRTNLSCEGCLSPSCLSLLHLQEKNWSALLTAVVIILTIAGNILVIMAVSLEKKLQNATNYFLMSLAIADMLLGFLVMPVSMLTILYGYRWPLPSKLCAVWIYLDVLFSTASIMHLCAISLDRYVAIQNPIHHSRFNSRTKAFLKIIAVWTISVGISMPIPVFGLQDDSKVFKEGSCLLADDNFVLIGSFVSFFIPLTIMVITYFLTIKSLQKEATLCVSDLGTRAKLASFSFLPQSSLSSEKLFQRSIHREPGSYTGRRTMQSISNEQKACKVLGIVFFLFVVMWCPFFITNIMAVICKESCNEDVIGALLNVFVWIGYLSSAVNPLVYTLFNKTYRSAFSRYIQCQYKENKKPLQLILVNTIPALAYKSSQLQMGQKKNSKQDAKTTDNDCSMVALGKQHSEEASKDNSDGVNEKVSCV
Protocol: Test 1: Evaluation of Binding Activity for Human 5-HT1A Receptor, Human 5-HT2A Receptor, and Human D2 Receptor
Binding affinity of the present compound for human 5-HT1A receptor, human 5-HT2A receptor, and human D2 receptor was measured by the following procedures.
Each mixture was incubated at room temperature for 60 minutes. Then, the mixture was added quickly on a glassfiber filter plate (Multiscreen FB, Millipore, Inc.) coated with 0.3% aqueous polyethylenimine, and vacuum-filtered. Radioactivity remaining on the filter was measured with a liquid scintillation counter (PerkinElmer, Inc.). Binding inhibition rate was calculated from the following formula.
Ki of each compound was calculated from the following formula. Binding inhibition constant (Ki)=IC50/(1+S/Kd) wherein S is concentration of ligand; Kd is a binding dissociation constant of ligand to membrane, which is calculated from a saturated binding experiment conducted with the same cell membrane. A small Ki value means strong binding ability to a receptor.

hERG channel = hERG channel (Homo sapiens (Human), UniProt Q12809); experiment: Test 6-1: inhibitory activity for hERG channel (auto patch clamp, Qpatch); type: cell-based; settings: whole cell auto patch clamp, hERG-CHO cells; read-out: hERG inhibition IC50
Chain of hERG channel (Q12809 whole entry): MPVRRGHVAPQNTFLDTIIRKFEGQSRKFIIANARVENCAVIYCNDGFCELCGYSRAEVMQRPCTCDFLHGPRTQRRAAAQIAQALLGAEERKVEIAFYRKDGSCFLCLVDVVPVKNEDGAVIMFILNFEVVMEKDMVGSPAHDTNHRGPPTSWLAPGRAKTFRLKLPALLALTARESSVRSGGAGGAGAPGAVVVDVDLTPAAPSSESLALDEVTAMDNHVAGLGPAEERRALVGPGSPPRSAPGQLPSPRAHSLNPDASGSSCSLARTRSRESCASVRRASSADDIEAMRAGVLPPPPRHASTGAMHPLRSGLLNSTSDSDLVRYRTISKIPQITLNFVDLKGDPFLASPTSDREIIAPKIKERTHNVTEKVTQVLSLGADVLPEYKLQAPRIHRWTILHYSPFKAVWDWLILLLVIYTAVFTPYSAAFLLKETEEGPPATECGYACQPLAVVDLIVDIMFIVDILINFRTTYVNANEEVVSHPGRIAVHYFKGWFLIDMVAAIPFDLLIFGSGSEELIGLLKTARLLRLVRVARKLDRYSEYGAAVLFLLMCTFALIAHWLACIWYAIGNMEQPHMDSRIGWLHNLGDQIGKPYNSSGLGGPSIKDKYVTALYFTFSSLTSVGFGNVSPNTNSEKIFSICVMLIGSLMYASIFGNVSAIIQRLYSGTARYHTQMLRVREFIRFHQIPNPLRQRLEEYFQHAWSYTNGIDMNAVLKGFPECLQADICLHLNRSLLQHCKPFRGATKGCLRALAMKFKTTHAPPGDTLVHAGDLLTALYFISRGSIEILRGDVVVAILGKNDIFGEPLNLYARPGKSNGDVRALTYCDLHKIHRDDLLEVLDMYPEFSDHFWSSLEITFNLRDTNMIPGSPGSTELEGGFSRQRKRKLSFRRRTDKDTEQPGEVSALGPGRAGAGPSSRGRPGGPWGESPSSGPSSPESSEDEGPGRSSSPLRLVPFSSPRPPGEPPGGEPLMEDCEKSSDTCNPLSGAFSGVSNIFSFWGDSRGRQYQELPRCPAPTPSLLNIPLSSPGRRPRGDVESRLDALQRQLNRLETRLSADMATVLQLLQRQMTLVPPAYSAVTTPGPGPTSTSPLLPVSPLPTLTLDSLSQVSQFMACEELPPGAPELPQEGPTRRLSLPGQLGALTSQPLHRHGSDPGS
How it was run: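 Whole-cell patch clamp on an automated system using CHO cells stably expressing human hERG (IKr); 15 s pulse interval. Four increasing compound concentrations applied cumulatively; mean peak tail current from last 3 stimulations per concentration used. IC50 from inhibition versus pre-compound current, fitted by Hill equation.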

human 5-HT1A receptor [3] = molecular target: T2, human 5-HT1A receptor (Homo sapiens (Human), UniProt P08908); experiment: Test 2: agonist activity for human 5-HT1A receptor ([35S]GTPγS binding); type: biochemical; settings: for Emax at 10 µM: agonist activity in the presence of 10 μM of compound, relative to 100 μmol/L 5-HT; for EC50: [35S]GTPγS binding, concentration at which half the activity of Emax was obtained
T2 sequence (P08908 whole entry): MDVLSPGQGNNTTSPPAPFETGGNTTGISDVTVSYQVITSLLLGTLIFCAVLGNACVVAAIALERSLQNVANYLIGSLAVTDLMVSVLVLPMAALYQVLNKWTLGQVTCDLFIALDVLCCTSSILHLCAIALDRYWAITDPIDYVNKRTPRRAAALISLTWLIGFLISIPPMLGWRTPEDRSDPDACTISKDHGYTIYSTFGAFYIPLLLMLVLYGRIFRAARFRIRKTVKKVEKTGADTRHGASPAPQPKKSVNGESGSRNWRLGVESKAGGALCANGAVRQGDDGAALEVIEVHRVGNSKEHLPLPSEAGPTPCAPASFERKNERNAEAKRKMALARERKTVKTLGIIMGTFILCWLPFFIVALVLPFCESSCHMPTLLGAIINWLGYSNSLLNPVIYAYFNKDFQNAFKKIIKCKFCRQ
How it was run: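 Membranes from CHO cells expressing human 5-HT1A incubated with compound, GDP-containing buffer and [35S]GTPγS for 60 min at room temperature. Bound radioactivity collected by glass-fibre filtration and counted by liquid scintillation; agonist activity derived from a formula.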

human 5-HT2A receptor [4] = molecular target: T1, human 5-HT2A receptor; experiment: Test 3: antagonist activity for human 5-HT2A receptor (aequorin luminescence, CHO-K1 cells); type: cell-based; settings: CHO-K1 cells, 1 nmol/L 5-HT
Protocol: Test 3: Evaluation of Antagonist Activity for Human 5-HT2A Receptor
Aequorin, Gα16 protein, and each receptor were transiently expressed in CHO-K1 cells (Chinese hamster ovary). […] Each compound dissolved in DMSO was added thereto, and changes in luminescence were measured by FDSS/μCELL functional drug screening system (Hamamatsu Photonics K.K.). Antagonist activity was calculated from the following formula. Antagonist activity (%)=100×{(Luminescence of well in the presence of 1 nmol/L 5-HT−Luminescence of well containing solvent)−(Luminescence of well in the presence of test compound and 1 nmol/L 5-HT−Luminescence of well containing solvent)}/(Luminescence of well in the presence of 1 nmol/L 5-HT−Luminescence of well containing solvent)

human D2 receptor = human D2 receptor (Homo sapiens (Human), UniProt P14416); experiment: Test 1: binding activity for human D2 receptor ([3H]Spiperone, CHO cell membrane fraction); settings: human D2 receptor, [3H]Spiperone
Chain of human D2 receptor (P14416 whole entry): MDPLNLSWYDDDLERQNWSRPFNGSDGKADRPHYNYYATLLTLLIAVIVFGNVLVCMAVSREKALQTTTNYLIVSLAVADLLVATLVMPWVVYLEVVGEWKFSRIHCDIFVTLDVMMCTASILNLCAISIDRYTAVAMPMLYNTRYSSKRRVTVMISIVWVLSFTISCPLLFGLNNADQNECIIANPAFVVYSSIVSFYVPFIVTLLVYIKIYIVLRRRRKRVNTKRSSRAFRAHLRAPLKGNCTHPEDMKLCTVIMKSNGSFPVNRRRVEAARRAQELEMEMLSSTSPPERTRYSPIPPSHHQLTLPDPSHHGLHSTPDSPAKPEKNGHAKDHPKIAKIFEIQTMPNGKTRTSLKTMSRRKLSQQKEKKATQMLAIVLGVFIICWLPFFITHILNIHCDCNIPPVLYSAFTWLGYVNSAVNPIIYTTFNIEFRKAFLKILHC
How it was run: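 CHO-cell membranes with [3H]ketanserin (5-HT2A) or [3H]spiperone (D2) were incubated with compound for 60 min at room temperature, then filtered, and bound radioactivity was counted by scintillation. Ki = IC50/(1+S/Kd), with ligand Kd from saturation binding on the same membranes.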

human 5-HT1A receptor [5] = molecular target: T2, human 5-HT1A receptor; experiment: Test 1: binding activity for human 5-HT1A receptor ([3H]8-OH-DPAT, CHO cell membrane fraction)
How it was run: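 Membranes incubated with [3H]8-OH-DPAT and compound for 60 min at room temperature, then filtered on polyethylenimine-coated glass-fibre plates and counted by liquid scintillation. IC50 from Hill analysis; Ki = IC50/(1+S/Kd), Kd from saturation binding on the same membranes.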

Compound: O=C1c2cncnc2CCN1CCN1CCC(c2noc3ccccc23)CC1 [Example 57]
- Metabolic stability in human hepatic microsome [1]: 0.013 mL/min/mg protein
- Ki (human 5-HT2A receptor [2]): 0.0076 µM
- IC50 (hERG channel): 2.2 µM
- Emax at 10 µM (human 5-HT1A receptor [3]): 61%
- IC50 (human 5-HT2A receptor [4]): 0.0767 µM

Compound: O=C1c2ncccc2CCN1CCN1CCN(c2noc3cc(Cl)ccc23)CC1 [Example 124]
- Ki (human 5-HT2A receptor [2]): 0.077 µM
- IC50 (human 5-HT2A receptor [4]; aequorin luminescence): 0.12 µM

Compound: O=C1c2ncccc2CCN1CCN1CCC(c2noc3cc(F)ccc23)CC1 [Example 125]
- Metabolic stability in human hepatic microsome [1]: <0.05 mL/min/mg protein
- Ki (human 5-HT2A receptor [2]): 0.00027 µM
- IC50 (hERG channel): < 0.3 µM
- IC50 (human 5-HT2A receptor [4]; aequorin luminescence): 0.00715 µM

Compound: CCc1nc2c(o1)C(=O)N(CCN1CCC(c3noc4ccccc34)CC1)CC2 [Example 72]
- Ki (human 5-HT2A receptor [2]): 0.0078 µM
- IC50 (human 5-HT2A receptor [4]): 0.072 µM

Compound: Cc1nc2c(o1)CCCN(CCN1CCN(c3nsc4ccccc34)CC1)C2=O [Example 52]
- Metabolic stability in human hepatic microsome [1]: 0.043 mL/min/mg protein
- Ki (human 5-HT2A receptor [2]): 0.0047 µM
- IC50 (hERG channel): 4.9 µM
- Emax at 10 µM (human 5-HT1A receptor [3]): 77%
- IC50 (human 5-HT2A receptor [4]): 0.012 µM

Compound: O=C1c2ncccc2CCC1CCN1CCN(c2noc3ccccc23)CC1 (stereo not shown) [Example 23]
- Metabolic stability in human hepatic microsome [1]: 0.109 mL/min/mg protein
- Ki (human 5-HT2A receptor [2]): 0.006 µM
- IC50 (hERG channel): 1.9 µM
- Emax at 10 µM (human 5-HT1A receptor [3]): 55%
- IC50 (human 5-HT2A receptor [4]): 0.00729 µM

Compound: Cc1noc2c1C(=O)N(CCN1CCN(c3nsc4ccccc34)CC1)CC2 [Example 34]
- Metabolic stability in human hepatic microsome [1]: 0.124 mL/min/mg protein
- Ki (human 5-HT2A receptor [2]): 0.0007 µM
- IC50 (hERG channel): 2.5 µM
- Emax at 10 µM (human 5-HT1A receptor [3]): 54%
- IC50 (human 5-HT2A receptor [4]): 0.008 µM

Compound: Cn1ncc2c1CCCC(CCN1CCN(c3nsc4ccccc34)CC1)C2=O (stereo not shown) [Example 31]
- Metabolic stability in human hepatic microsome [1]: 0.305 mL/min/mg protein
- Ki (human 5-HT2A receptor [2]): 0.00047 µM
- IC50 (hERG channel): 1.2 µM
- Emax at 10 µM (human 5-HT1A receptor [3]): 40%
- IC50 (human 5-HT2A receptor [4]): 0.00271 µM

Compound: Cc1noc2ccn(CCN3CCN(c4nsc5ccccc45)CC3)c(=O)c12 [Example 53]
- Metabolic stability in human hepatic microsome [1]: 0.436 mL/min/mg protein
- IC50 (hERG channel): 5.8 µM
- Emax at 10 µM (human 5-HT1A receptor [3]): 72%
- IC50 (human 5-HT2A receptor [4]): 0.00803 µM

Compound: Cn1cc2c(n1)CCN(CCN1CCN(c3noc4ccccc34)CC1)C2=O [Example 81]
- Metabolic stability in human hepatic microsome [1]: <0.01 mL/min/mg protein
- Ki (human 5-HT2A receptor [2]): 0.01 µM
- IC50 (hERG channel): > 10 µM
- Emax at 10 µM (human 5-HT1A receptor [3]): 60%
- IC50 (human 5-HT2A receptor [4]): 0.083 µM

Compound: Cc1nc2c(o1)C(=O)N(CCN1CCN(c3nsc4ccccc34)CC1)CC2 [Example 45]
- Metabolic stability in human hepatic microsome [1]: 0.032 mL/min/mg protein
- Ki (human 5-HT2A receptor [2]): 0.0031 µM
- IC50 (hERG channel): 7 µM
- Emax at 10 µM (human 5-HT1A receptor [3]): 65%
- IC50 (human 5-HT2A receptor [4]): 0.027 µM

Compound: O=C1c2ncccc2CCC1CCN1CCN(c2nsc3ccccc23)CC1 (stereo not shown) [Example 25]
- Metabolic stability in human hepatic microsome [1]: 0.398 mL/min/mg protein
- Ki (human 5-HT2A receptor [2]): 0.00301 µM
- IC50 (hERG channel): 0.4 µM
- Emax at 10 µM (human 5-HT1A receptor [3]): 57%
- IC50 (human 5-HT2A receptor [4]): 0.00554 µM

Compound: Cc1nc2c(o1)C(=O)N(CCN1CCN(c3noc4ccccc34)CC1)CC2 [Example 178]
- Ki (human 5-HT2A receptor [2]): 0.179 µM
- IC50 (human 5-HT2A receptor [4]; aequorin luminescence): 2.02 µM
- Ki (human D2 receptor): > 10 µM

Compound: Cc1cc2c(C3CCN(CCN4CCc5cccnc5C4=O)CC3)noc2cc1F [Example 6]
- Metabolic stability in human hepatic microsome [1]: 0.061 mL/min/mg protein
- Ki (human 5-HT2A receptor [2]): 0.068 µM
- IC50 (hERG channel): 2.2 µM
- Emax at 10 µM (human 5-HT1A receptor [3]): 31%
- IC50 (human 5-HT2A receptor [4]): 0.651 µM

Compound: Cc1noc2c1C(=O)N(CCN1CCN(c3nsc4ccccc34)CC1)CCC2 [Example 40]
- Metabolic stability in human hepatic microsome [1]: 0.278 mL/min/mg protein
- Ki (human 5-HT2A receptor [2]): 0.00486 µM
- IC50 (hERG channel): 1.8 µM
- Emax at 10 µM (human 5-HT1A receptor [3]): 60%
- IC50 (human 5-HT2A receptor [4]): 0.0087 µM

Compound: Cc1ccc2c(n1)C(=O)N(CCN1CCC(c3noc4ccccc34)CC1)CC2 [Example 184]
- Metabolic stability in human hepatic microsome [1]: <0.05 mL/min/mg protein
- Ki (human 5-HT2A receptor [2]): 0.027 µM
- IC50 (hERG channel): 0.8 µM
- Emax at 10 µM (human 5-HT1A receptor [3]): 59%
- IC50 (human 5-HT2A receptor [4]; aequorin luminescence): 0.0955 µM

Compound: O=c1c2cnccc2ccn1CCN1CCC(c2noc3ccccc23)CC1 [Example 13]
- Metabolic stability in human hepatic microsome [1]: <0.01 mL/min/mg protein
- Ki (human 5-HT2A receptor [2]): 0.0084 µM
- IC50 (human 5-HT2A receptor [4]): 0.071 µM

Compound: O=C1c2ncccc2CCN1CCN1CCC(c2noc3cc(F)ccc23)CC1 [Example 4]
- Metabolic stability in human hepatic microsome [1]: 0.011 mL/min/mg protein
- Ki (human 5-HT2A receptor [2]): 0.0024 µM
- IC50 (hERG channel): 0.4 µM
- IC50 (human 5-HT2A receptor [4]): 0.00995 µM

Compound: Cc1cc2c(cn1)C(=O)N(CCN1CCN(c3nsc4ccccc34)CC1)CC2 [Example 108, 2-{2-[4-(1,2-Benzoisothiazol-3-yl)piperazin-1-yl]ethyl}-6-methyl-3,4-dihydro-2,7-naphthyridin-1(2H)-one]
- Metabolic stability in human hepatic microsome [1]: 0.119 mL/min/mg protein
- IC50 (hERG channel): 2.8 µM
- Emax at 10 µM (human 5-HT1A receptor [3]): 71%
- IC50 (human 5-HT2A receptor [4]): 0.0075 µM

Compound: Cc1cc2c(cn1)C(=O)N(CCN1CC=C(c3noc4ccccc34)CC1)CC2 [Example 152]
- Ki (human 5-HT2A receptor [2]): 0.0114 µM
- IC50 (human 5-HT2A receptor [4]; aequorin luminescence): 0.0827 µM

Compound: O=C1c2cccnc2CCN1CCN1CCN(c2nsc3ccccc23)CC1 [Example 9]
- Metabolic stability in human hepatic microsome [1]: 0.100 mL/min/mg protein
- Ki (human 5-HT2A receptor [2]): 0.00224 µM
- IC50 (hERG channel): 2.3 µM
- Emax at 10 µM (human 5-HT1A receptor [3]): 43%

Compound: O=C1c2c(Br)nn(Br)c2CCN1CCN1CCN(c2nsc3ccccc23)CC1 [Example 69]
- Ki (human 5-HT2A receptor [2]): 0.001 µM
- EC50 (human 5-HT1A receptor [3]): 0.0339 µM
- Emax at 10 µM (human 5-HT1A receptor [3]): 45%
- Ki (human D2 receptor): 0.36 µM
- Ki (human 5-HT1A receptor [5]): 0.0104 µM

Compound: O=C1c2ncccc2CCN1CCN1CCN(c2noc3cc(F)ccc23)CC1 [Example 123]
- Metabolic stability in human hepatic microsome [1]: <0.05 mL/min/mg protein
- IC50 (hERG channel): 3.9 µM
- EC50 (human 5-HT1A receptor [3]): 0.186 µM
- Emax at 10 µM (human 5-HT1A receptor [3]): 71%
- IC50 (human 5-HT2A receptor [4]; aequorin luminescence): 0.0229 µM
- Ki (human 5-HT1A receptor [5]): 0.162 µM

Compound: COc1ncc2c(n1)CCN(CCN1CCN(c3nsc4ccccc34)CC1)C2=O [Example 177]
- Metabolic stability in human hepatic microsome [1]: 0.095 mL/min/mg protein
- IC50 (hERG channel): 3.7 µM
- Emax at 10 µM (human 5-HT1A receptor [3]): 36%
- Ki (human D2 receptor): 0.237 µM
- Ki (human 5-HT1A receptor [5]): 0.00563 µM

Compound: Cn1cnc2c1C(=O)N(CCN1CCC(c3noc4ccccc34)CC1)CC2 [Example 133]
- Metabolic stability in human hepatic microsome [1]: <0.05 mL/min/mg protein
- IC50 (hERG channel): 4.7 µM
- EC50 (human 5-HT1A receptor [3]): 0.29 µM
- Emax at 10 µM (human 5-HT1A receptor [3]): 26%
- Ki (human D2 receptor): 0.914 µM
- Ki (human 5-HT1A receptor [5]): 0.327 µM
